# Assay results as given in publication PMC8468270, “In Vitro Heme Coordination of a Dye-Decolorizing Peroxidase—The Interplay of Key Amino Acids, pH, Buffer and Glycerol” (International Journal of Molecular Sciences, 2021).
# Target: T1, KpDyP (WT KpDyP) (Klebsiella pneumoniae, UniProt A0A0W8ATM9)
# T1 construct: gene yfeX; homodimer; ferric heme; distal D143, R232, L246, F248, proximal H215
# T1 sequence (A0A0W8ATM9 1-299): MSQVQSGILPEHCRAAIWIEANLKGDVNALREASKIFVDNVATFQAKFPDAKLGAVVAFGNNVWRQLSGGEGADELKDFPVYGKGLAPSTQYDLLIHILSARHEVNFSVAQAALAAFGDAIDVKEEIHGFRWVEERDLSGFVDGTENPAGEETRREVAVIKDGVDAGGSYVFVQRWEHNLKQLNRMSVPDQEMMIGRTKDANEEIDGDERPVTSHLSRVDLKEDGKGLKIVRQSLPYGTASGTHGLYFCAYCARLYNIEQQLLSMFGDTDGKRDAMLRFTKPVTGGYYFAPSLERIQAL
# Test: X-band CW EPR of frozen solution
# Format: binding
# Settings: glycine-KOH buffer 50 mM, pH 10.0, 10 K, no glycerol; heme iron distal ligand; seen only at low temperature, not at room temperature
compound,measurement,value
NCC(=O)O [glycine],X-band CW EPR of frozen solution,glycine binding is also observed for WT and R232A KpDyP at low temperature
